How the values were obtained:
[1] = target: T1, PTPN2 (B16F10.4 cells) (Mus musculus, UniProt Q06180); assay: HiBiT Degradation B16F10.4 PTPN2; format: cell-based; details: 24.0 hours
T1 construct: HiBiT; host or cells: B16F10.4
T1 sequence (Q06180 1-406): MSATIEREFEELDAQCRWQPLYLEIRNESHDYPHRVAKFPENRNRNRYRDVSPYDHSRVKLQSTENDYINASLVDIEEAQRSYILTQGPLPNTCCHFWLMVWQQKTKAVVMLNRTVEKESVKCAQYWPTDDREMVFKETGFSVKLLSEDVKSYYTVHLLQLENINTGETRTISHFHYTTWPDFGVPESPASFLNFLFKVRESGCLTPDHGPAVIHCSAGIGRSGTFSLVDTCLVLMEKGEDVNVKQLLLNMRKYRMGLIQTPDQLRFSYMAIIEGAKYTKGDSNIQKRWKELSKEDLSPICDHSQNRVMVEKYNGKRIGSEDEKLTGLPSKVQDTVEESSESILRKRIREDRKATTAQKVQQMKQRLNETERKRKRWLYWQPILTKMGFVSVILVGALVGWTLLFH

[2] = target: T2, PTPN2 (HiBIT-PTPN2 in 293T.109 cells) (Homo sapiens, UniProt P17706); assay: HiBiT Degradation 293T.109 PTPN2 (Nano-Glo HiBiT Lytic Assay); format: cell-based; details: 24.0 hours
T2 construct: expressed in transfected cells; host or cells: 293T.109 (293T WT from ATCC)
T2 sequence (P17706 1-415): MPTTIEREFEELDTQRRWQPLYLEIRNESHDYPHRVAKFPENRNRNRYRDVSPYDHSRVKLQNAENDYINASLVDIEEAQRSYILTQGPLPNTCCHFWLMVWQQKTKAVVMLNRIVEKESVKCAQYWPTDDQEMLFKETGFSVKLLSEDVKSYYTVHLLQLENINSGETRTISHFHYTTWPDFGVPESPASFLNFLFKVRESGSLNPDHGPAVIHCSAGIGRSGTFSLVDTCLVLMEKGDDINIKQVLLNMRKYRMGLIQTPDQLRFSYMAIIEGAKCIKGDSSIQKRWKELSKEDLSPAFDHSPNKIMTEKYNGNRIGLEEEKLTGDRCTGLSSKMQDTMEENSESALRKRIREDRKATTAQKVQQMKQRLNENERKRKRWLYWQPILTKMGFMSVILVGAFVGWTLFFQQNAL
Description: Dulbecco's modified Eagle medium (DMEM) without phenol red and fetal bovine serum (FBS) were purchased from Gibco (Grand Island, NY, USA). Nano-Glo® HiBIT Lytic Assay System was purchased from Promega (Madison, WI, USA). 293T.109 (HiBIT-PTPN2) cell line was generated by ectopically expressing PTPN2 with N-terminal HiBIT fusion tag in 293T WT cell line purchased from ATCC (Manassas, VA, USA). Cell culture flasks and 384-well microplates were acquired from VWR (Radnor, PA, USA).
PTPN2 degradation was determined based on quantification of luminescent signal using Nano-Glo® HiBIT Lytic Assay kit. Test compounds were added to the 384-well plate from a top concentration of 10 μM with 11 points, half log titration in duplicates. 293T.109 cells were added into 384-well plates at a cell density of 5000 cells per well. The plates were kept at 37° C. with 5% CO2 for 24 hours. The cells treated in the absence of the test compound were the negative control and the cells without Nano-Glo® HiBIT Lytic reagent were the positive control. After 24-hour incubation, Nano-Glo® HiBiT Lytic Assay reagents were added to the cells. Luminescence was acquired on EnVision™ Multilabel Reader (PerkinElmer, Santa Clara, CA, USA).

SMILES | DC50 [1] | DC50 [2]
CC1(C)C[C@@H](Nc2cccc(-c3sc(C(=O)O)c(OCC(=O)O)c3Cl)c2)CCN1S(=O)(=O)Cc1cccc(NC(=O)CN2CCC(c3ccc4c(c3)oc(=O)n4C3CCC(=O)NC3=O)CC2)c1 (stereo partly drawn) [Example 70, 3-(Carboxymethoxy)-4-chloro-5-[3-[[(4S)-1-[[3-[[2-[4-[3-(2,6-dioxo-3-piperidyl)-2-oxo-1,3-benzoxazol-6-yl]-1-piperidyl]acetyl]amino]phenyl]methylsulfonyl]-2,2-dimethyl-4-piperidyl]amino]phenyl]thiophene-2-carboxylic acid] | 200 to 1000 nM | 50 to 200 nM
C[C@H]1CN(C(=O)Nc2cccc(CS(=O)(=O)N3CC[C@H](Nc4cccc(-c5sc(C(=O)O)c(OCC(=O)O)c5Cl)c4)CC3(C)C)c2)CCN1c1ccc2c(c1)n(C)c(=O)n2C1CCC(=O)NC1=O (some centres unmarked) [Example 210] | 50 to 200 nM | 50 to 200 nM
CC1(C)C[C@@H](Nc2cccc(-c3sc(C(=O)O)c(OCC(=O)O)c3Cl)c2)CCN1S(=O)(=O)Cc1cccc(NC(=O)N2CCC(c3ccc4c(c3)n(C(C)(C)C)c(=O)n4C3CCC(=O)NC3=O)CC2)c1 (stereo partly drawn) [Example 186, 5-(3-(((4S)-1-((3-(4-(3-(tert-butyl)-1-(2,6-dioxopiperidin-3-yl)-2-oxo-2,3-dihydro-1H-benzo[d]imidazol-5-yl)piperidine-1-carboxamido)benzyl)sulfonyl)-2,2-dimethylpiperidin-4-yl)amino)phenyl)-3-(carboxymethoxy)-4-chlorothiophene-2-carboxylic acid] | 50 to 200 nM | 50 to 200 nM
CC1(C)C[C@@H](Nc2cccc(-c3sc(C(=O)O)c(OCC(=O)O)c3Cl)c2)CCN1S(=O)(=O)Cc1cccc(NC(=O)N2CCC(c3ccc4c(c3)n(CC(F)(F)F)c(=O)n4C3CCC(=O)NC3=O)CC2)c1 (stereo partly drawn) [Example 155, 3-(carboxymethoxy)-4-chloro-5-[3-[[(4S)-1-[[3-[[4-[1-(2,6-dioxo-3-piperidyl)-2-oxo-3-(2,2,2-trifluoroethyl)benzimidazol-5-yl]piperidine-1-carbonyl]amino]phenyl]-methylsulfonyl]-2,2-dimethyl-4-piperidyl]amino]phenyl]thiophene-2-carboxylic acid] | 50 to 200 nM | 50 to 200 nM
CC1(C)C[C@@H](Nc2cccc(-c3sc(C(=O)O)c(OCC(=O)O)c3Cl)c2)CCN1S(=O)(=O)Cc1cccc(NC(=O)NCCCc2cc3c4c(cccc4c2)N(C2CCC(=O)NC2=O)C3=O)c1 (stereo partly drawn) [Example 215, 3-(carboxymethoxy)-4-chloro-5-[3-[[(4S)-1-[[3-[3-[1-(2,6-dioxo-3-piperidyl)-2-oxo-benzo[cd]indol-4-yl]propylcarbamoylamino]phenyl]methylsulfonyl]-2,2-dimethyl-4-piperidyl]amino]phenyl]thiophene-2-carboxylic acid] | 200 to 1000 nM | 50 to 200 nM
Cn1c(=O)n(C2CCC(=O)NC2=O)c2ccc([C@H]3CC[C@@H](C(=O)Nc4cccc(CS(=O)(=O)N5CC[C@H](Nc6cccc(-c7sc(C(=O)O)c(OCC(=O)O)c7Cl)c6)CC5(C)C)c4)CC3)cc21 (stereo partly drawn) [Example 139, 3-(carboxymethoxy)-4-chloro-5-(3-(((4S)-1-((3-((1s,4R)-4-(1-(2,6-dioxopiperidin-3-yl)-3-methyl-2-oxo-2,3-dihydro-1H-benzo[d]imidazol-5-yl)cyclohexane-1-carboxamido)benzyl)sulfonyl)-2,2-dimethylpiperidin-4-yl)amino)phenyl)thiophene-2-carboxylic acid] | 50 to 200 nM | < 50 nM
CC1(C)C[C@@H](Nc2cccc(-c3sc(C(=O)O)c(OCC(=O)O)c3Cl)c2)CCN1S(=O)(=O)Cc1cccc(NC(=O)C2CCN(C(=O)CNc3cccc4c3CN(C3CCC(=O)NC3=O)C4=O)CC2)c1 (stereo partly drawn) [Example 48, 3-(carboxymethoxy)-4-chloro-5-(3-(((4S)-1-((3-(1-((2-(2,6-dioxopiperidin-3-yl)-1-oxoisoindolin-4-yl)glycyl)piperidine-4-carboxamido)benzyl)sulfonyl)-2,2-dimethylpiperidin-4-yl)amino)phenyl)thiophene-2-carboxylic acid] | 200 to 1000 nM | < 50 nM
Cn1c(=O)n(C2CCC(=O)NC2=O)c2ccc(C3CCN(C(=O)Nc4cccc(CS(=O)(=O)N5CCC(Nc6cccc(-c7sc(C(=O)O)c(OCC(=O)O)c7Cl)c6F)CC5)c4)CC3)cc21 (centres unmarked) [Example 123, 3-(carboxymethoxy)-4-chloro-5-[3-[[1-[[3-[[4-[1-(2,6-dioxo-3-piperidyl)-3-methyl-2-oxo-benzimidazol-5-yl]piperidine-1-carbonyl]amino]phenyl]methylsulfonyl]-4-piperidyl]amino]-2-fluoro-phenyl]thiophene-2-carboxylic acid] | 50 to 200 nM | 50 to 200 nM
CC1(C)C[C@@H](Nc2cccc(-c3sc(C(=O)O)c(OCC(=O)O)c3Cl)c2)CCN1S(=O)(=O)Cc1cccc(NC(=O)N2CCC(c3ccc4c5c(cccc35)C(=O)N4C3CCC(=O)NC3=O)CC2)c1 (stereo partly drawn) [Example 82, 3-(carboxymethoxy)-4-chloro-5-[3-[[(4S)-1-[[3-[[4-[1-(2,6-dioxo-3-piperidyl)-2-oxo-benzo[cd]indol-6-yl]piperidine-1-carbonyl]amino]phenyl]methylsulfonyl]-2,2-dimethyl-4-piperidyl]amino]phenyl]thiophene-2-carboxylic acid] | < 50 nM | < 50 nM
CC1(C)C[C@@H](Nc2cccc(-c3sc(C(=O)O)c(OCC(=O)O)c3Cl)c2)CCN1S(=O)(=O)Cc1cccc(NC(=O)CCCCCn2cc(CNc3cccc4c3C(=O)N(C3CCC(=O)NC3=O)C4=O)nn2)c1 (stereo partly drawn) [Example 12, 3-(carboxymethoxy)-4-chloro-5-(3-(((4S)-1-((3-(6-(4-(((2-(2,6-dioxopiperidin-3-yl)-1,3-dioxoisoindolin-4-yl)amino)methyl)-1H-1,2,3-triazol-1-yl)hexanamido)benzyl)sulfonyl)-2,2-dimethylpiperidin-4-yl)amino)phenyl)thiophene-2-carboxylic acid] | 200 to 1000 nM | 200 to 1000 nM
Cn1c(=O)n(C2CCC(=O)NC2=O)c2ccc(C3CCN(C(=O)Nc4cc(CS(=O)(=O)N5CC[C@H](Nc6cccc(-c7sc(C(=O)O)c(OCC(=O)O)c7Cl)c6)CC5(C)C)ccc4F)CC3)cc21 (stereo partly drawn) [Example 119, 3-(carboxymethoxy)-4-chloro-5-[3-[[(4S)-1-[[3-[[4-[1-(2,6-dioxo-3-piperidyl)-3-methyl-2-oxo-benzimidazol-5-yl]piperidine-1-carbonyl]amino]-4-fluoro-phenyl]methylsulfonyl]-2,2-dimethyl-4-piperidyl]amino]phenyl]thiophene-2-carboxylic acid] | 50 to 200 nM | 50 to 200 nM
Cn1c(=O)n(C2CCC(=O)NC2=O)c2ccc(Cc3ccc(CC(=O)Nc4cccc(CS(=O)(=O)N5CC[C@H](Nc6cccc(-c7sc(C(=O)O)c(OCC(=O)O)c7Cl)c6)CC5(C)C)c4)cc3)cc21 (stereo partly drawn) [Example 236, 3-(carboxymethoxy)-4-chloro-5-[3-[[(4S)-1-[[3-[[2-[4-[[1-(2,6-dioxo-3-piperidyl)-3-methyl-2-oxo-benzimidazol-5-yl]methyl]phenyl]acetyl]amino]phenyl]methylsulfonyl]-2,2-dimethyl-4-piperidyl]amino]phenyl]thiophene-2-carboxylic acid] | < 50 nM | < 50 nM
Cn1c(=O)n(C2CCC(=O)NC2=O)c2ccc(C3CCN(C(=O)Nc4cccc(CS(=O)(=O)N5CCC(Nc6cccc(-c7sc(C(=O)O)c(OCC(=O)O)c7Cl)c6)CC5)c4)CC3)cc21 (centres unmarked) [Example 51, 3-(carboxymethoxy)-4-chloro-5-[3-[[1-[[3-[[4-[1-(2,6-dioxo-3-piperidyl)-3-methyl-2-oxo-benzimidazol-5-yl]piperidine-1-carbonyl]amino]phenyl]methylsulfonyl]-4-piperidyl]amino]phenyl]thiophene-2-carboxylic acid] | 50 to 200 nM | 50 to 200 nM
